According to patent US20180022780A1, “STABILIZATION ADRENOMEDULLIN DERIVATIVES AND USE THEREOF” (priority 2014, published 2018):
Bridge positions count the residues as written; N and C are the ends. Square brackets hold non-standard residues; d marks the D form. Peptide text beside a SMILES is read from it. * marks the point of attachment. Palmitoyl = CCCCCCCCCCCCCCCC(=O)*; Orn = NCCC[C@H](N)C(=O)O; Dab = NCC[C@H](N)C(=O)O; Dap = NC[C@H](N)C(=O)O

Key:
[1] = target: T1, human adrenomedullin-receptor (Homo sapiens, UniProt O60895+Q16602); experiment: Tests on a recombinant adrenomedullin-receptor reporter cell (CHO, aequorin luminescence); type: cell-based; conditions: Table 1, CHO cell line carrying the human adrenomedullin-receptor
T1 construct: expressed in transfected cells; host or cells: CHO (Chinese hamster ovary) recombinant reporter cell line with aequorin
Protocol: Activation of the receptor by ligands was measured by aequorin luminescence. Construction of the cell line and measurement procedure has been described in detail [Wunder F., Rebmann A., Geerts A, and Kalthof B., Mol Pharmacol, 73, 1235-1243 (2008)]. In brief: Cells were seeded on opaque 384-well microtiter plates at a density of 4000 cells/well and were grown for 24 h. After removal of culture medium, cells were loaded for 3 h with 0.6 μg/ml coelenterazine in Ca^2+-free Tyrode solution (130 mM sodium chloride, 5 mM potassium chloride, 20 mM HEPES (4-(2-hydroxyethyl)-1-piperazineethanesulfonic acid), 1 mM magnesium chloride, and 4.8 mM sodium hydrogen carbonate, pH 7.4) supplemented with 0.2 mM 3-Isobutyl-1-methylxanthine (IBMX) in a cell culture incubator. Examples were added for 6 min in calcium^2+-free Tyrode solution containing 0.1% bovine serum albumin. Immediately before adding calcium^2+ to a final concentration of 3 mM measurement of the aequorin luminescence was started by use of a suitable luminometer. Luminescence was measured for 60 s. In a typical experiment compounds were tested in a concentration range of 1×10^−13 to 3×10^−6 M.

[2] = target: T2, CLR fused to EYFP and RAMP2 fused to ECFP (Homo sapiens, UniProt O60895+Q16602); experiment: cAMP assay (CRE luciferase reporter, HEK-293 cells transiently co-transfected with CLR and RAMP2); type: cell-based; conditions: Table 2, cAMP assay; HEK-293, CLR/RAMP2, CRE luciferase, 3 h stimulation, normalized to [G^14]ADM(14-52)
T2 construct: EYFP; ECFP; expressed in transfected cells; host or cells: HEK-293 cells, transient co-transfection
How it was run: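 HEK-293 cells transiently co-transfected with CLR-EYFP, RAMP2-ECFP and a CRE-luc2P luciferase reporter were stimulated with ligands (eight concentrations, triplicate) for 3 h at 37 °C. Luminescence was corrected to 5 µM forskolin, normalized to [G^14]ADM(14-52) standard, and fitted by non-linear regression to dose-response curves.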

T1 sequence (Q16602 23-461): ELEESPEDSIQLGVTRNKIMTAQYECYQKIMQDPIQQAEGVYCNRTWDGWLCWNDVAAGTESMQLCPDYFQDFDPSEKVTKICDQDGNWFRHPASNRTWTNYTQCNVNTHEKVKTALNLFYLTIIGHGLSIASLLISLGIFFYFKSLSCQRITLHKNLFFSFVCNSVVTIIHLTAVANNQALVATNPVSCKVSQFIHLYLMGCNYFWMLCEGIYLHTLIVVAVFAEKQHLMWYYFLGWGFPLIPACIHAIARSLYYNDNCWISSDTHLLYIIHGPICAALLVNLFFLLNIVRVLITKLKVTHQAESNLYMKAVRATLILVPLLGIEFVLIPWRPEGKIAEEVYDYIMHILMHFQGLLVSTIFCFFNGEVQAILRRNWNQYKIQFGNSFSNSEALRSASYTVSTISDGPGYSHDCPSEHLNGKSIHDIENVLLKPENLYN
T1 sequence (O60895 43-175): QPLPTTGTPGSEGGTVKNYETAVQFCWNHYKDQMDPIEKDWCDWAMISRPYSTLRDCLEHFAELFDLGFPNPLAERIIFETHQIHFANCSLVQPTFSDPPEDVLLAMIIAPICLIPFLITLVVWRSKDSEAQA
T2 sequence (Q16602 23-461): as the sequence (Q16602 23-461) above
T2 sequence (O60895 43-175): as the sequence (O60895 43-175) above

CC[C@H](C)[C@H](NC(=O)[C@H](CCC(N)=O)NC(=O)[C@H](Cc1c[nH]cn1)NC(=O)[C@H](C)NC(=O)[C@H](CC(C)C)NC(=O)[C@H](CCCCN)NC(=O)[C@H](CCC(N)=O)NC(=O)[C@@H](NC(=O)[C@@H](NC(=O)[C@@H]1CCC(=O)NCCCC[C@H](NC(=O)CNC(=O)CN)C(=O)N[C@@H](CCCNC(=N)N)C(=O)N[C@@H](Cc2ccccc2)C(=O)NCC(=O)N[C@@H]([C@@H](C)O)C(=O)N1)[C@@H](C)O)C(C)C)C(=O)N[C@@H](Cc1ccc(O)cc1)C(=O)N[C@@H](CCC(N)=O)C(=O)N[C@@H](Cc1ccccc1)C(=O)N[C@H](C(=O)N[C@@H](CC(=O)O)C(=O)N[C@@H](CCCCN)C(=O)N[C@@H](CC(=O)O)C(=O)N[C@@H](CCCCN)C(=O)N[C@@H](CC(=O)O)C(=O)N[C@@H](CC(N)=O)C(=O)N[C@H](C(=O)N[C@@H](C)C(=O)N1CCC[C@H]1C(=O)N[C@@H](CCCNC(=N)N)C(=O)N[C@@H](CO)C(=O)N[C@@H](CCCCN)C(=O)N[C@H](C(=O)N[C@@H](CO)C(=O)N1CCC[C@H]1C(=O)N[C@@H](CCC(N)=O)C(=O)NCC(=O)N[C@@H](Cc1ccc(O)cc1)C(N)=O)[C@@H](C)CC)C(C)C)[C@@H](C)O [Example 2, ((2S,5S,11S,14S,23S)-23-(2-(2-aminoacetamido)acetamido)-5-benzyl-2-(3-guanidinopropyl)-11-((R)-1-hydroxyethyl)-3,6,9,12,17,24-hexaoxo-1,4,7,10,13,18-hexaazacyclotetracosane-14-carbonyl)-L-threonyl-ADM(22-52)] (H-GGKRFGTETVQKLAHQIYQFTDKDKDNVAPRSKISPQGY-NH2; lactam 3-8)
EC50 [1]: > 1000 nM
EC50 [2]: > 1000 nM

CC[C@H](C)[C@H](NC(=O)[C@H](CCC(N)=O)NC(=O)[C@H](Cc1c[nH]cn1)NC(=O)[C@H](C)NC(=O)[C@H](CC(C)C)NC(=O)[C@H](CCCCN)NC(=O)[C@H](CCC(N)=O)NC(=O)[C@@H](NC(=O)[C@@H](NC(=O)[C@@H]1CC(=O)NCC[C@H](NC(=O)CNC(=O)CN)C(=O)N[C@@H](CCCNC(=N)N)C(=O)N[C@@H](Cc2ccccc2)C(=O)NCC(=O)N[C@@H]([C@@H](C)O)C(=O)N1)[C@@H](C)O)C(C)C)C(=O)N[C@@H](Cc1ccc(O)cc1)C(=O)N[C@@H](CCC(N)=O)C(=O)N[C@@H](Cc1ccccc1)C(=O)N[C@H](C(=O)N[C@@H](CC(=O)O)C(=O)N[C@@H](CCCCN)C(=O)N[C@@H](CC(=O)O)C(=O)N[C@@H](CCCCN)C(=O)N[C@@H](CC(=O)O)C(=O)N[C@@H](CC(N)=O)C(=O)N[C@H](C(=O)N[C@@H](C)C(=O)N1CCC[C@H]1C(=O)N[C@@H](CCCNC(=N)N)C(=O)N[C@@H](CO)C(=O)N[C@@H](CCCCN)C(=O)N[C@H](C(=O)N[C@@H](CO)C(=O)N1CCC[C@H]1C(=O)N[C@@H](CCC(N)=O)C(=O)NCC(=O)N[C@@H](Cc1ccc(O)cc1)C(N)=O)[C@@H](C)CC)C(C)C)[C@@H](C)O [Example 5, ((2S,5S,11S,14S,20S)-20-(2-(2-aminoacetamido)acetamido)-5-benzyl-2-(3-guanidinopropyl)-11-((R)-1-hydroxyethyl)-3,6,9,12,16,21-hexaoxo-1,4,7,10,13,17-hexaazacyclohenicosane-14-carbonyl)-L-threonyl-ADM(22-52)] (H-GG[Dab]RFGTDTVQKLAHQIYQFTDKDKDNVAPRSKISPQGY-NH2; lactam 3-8)
EC50 [1]: > 1000 nM
EC50 [2]: 112 nM

CC[C@H](C)[C@H](NC(=O)[C@H](CCC(N)=O)NC(=O)[C@H](Cc1c[nH]cn1)NC(=O)[C@H](C)NC(=O)[C@H](CC(C)C)NC(=O)[C@H](CCCCN)NC(=O)[C@H](CCC(N)=O)NC(=O)[C@@H](NC(=O)[C@@H](NC(=O)[C@@H]1CNC(=O)CC[C@H](NC(=O)CNC(=O)CN)C(=O)N[C@@H](CCCNC(=N)N)C(=O)N[C@@H](Cc2ccccc2)C(=O)NCC(=O)N[C@@H]([C@@H](C)O)C(=O)N1)[C@@H](C)O)C(C)C)C(=O)N[C@@H](Cc1ccc(O)cc1)C(=O)N[C@@H](CCC(N)=O)C(=O)N[C@@H](Cc1ccccc1)C(=O)N[C@H](C(=O)N[C@@H](CC(=O)O)C(=O)N[C@@H](CCCCN)C(=O)N[C@@H](CC(=O)O)C(=O)N[C@@H](CCCCN)C(=O)N[C@@H](CC(=O)O)C(=O)N[C@@H](CC(N)=O)C(=O)N[C@H](C(=O)N[C@@H](C)C(=O)N1CCC[C@H]1C(=O)N[C@@H](CCCNC(=N)N)C(=O)N[C@@H](CO)C(=O)N[C@@H](CCCCN)C(=O)N[C@H](C(=O)N[C@@H](CO)C(=O)N1CCC[C@H]1C(=O)N[C@@H](CCC(N)=O)C(=O)NCC(=O)N[C@@H](Cc1ccc(O)cc1)C(N)=O)[C@@H](C)CC)C(C)C)[C@@H](C)O [Example 6, ((3S,6S,12S,15S,18S)-18-(2-(2-aminoacetamido)acetamido)-12-benzyl-15-(3-guanidinopropyl)-6-((R)-1-hydroxyethyl)-5,8,11,14,17,21-hexaoxo-1,4,7,10,13,16-hexaazacyclohenicosane-3-carbonyl)-L-threonyl-ADM(22-52)] (H-GGERFGT[Dap]TVQKLAHQIYQFTDKDKDNVAPRSKISPQGY-NH2; lactam 3-8)
EC50 [1]: > 1000 nM
EC50 [2]: 303 nM

CC[C@H](C)[C@H](NC(=O)[C@H](CCC(N)=O)NC(=O)[C@H](Cc1c[nH]cn1)NC(=O)[C@H](C)NC(=O)[C@H](CC(C)C)NC(=O)[C@H](CCCCN)NC(=O)[C@H](CCC(N)=O)NC(=O)[C@@H](NC(=O)[C@@H](NC(=O)[C@@H]1CC(=O)NCCC[C@H](NC(=O)CNC(=O)CN)C(=O)N[C@@H](CCCNC(=N)N)C(=O)N[C@@H](Cc2ccccc2)C(=O)NCC(=O)N[C@@H]([C@@H](C)O)C(=O)N1)[C@@H](C)O)C(C)C)C(=O)N[C@@H](Cc1ccc(O)cc1)C(=O)N[C@@H](CCC(N)=O)C(=O)N[C@@H](Cc1ccccc1)C(=O)N[C@H](C(=O)N[C@@H](CC(=O)O)C(=O)N[C@@H](CCCCN)C(=O)N[C@@H](CC(=O)O)C(=O)N[C@@H](CCCCN)C(=O)N[C@@H](CC(=O)O)C(=O)N[C@@H](CC(N)=O)C(=O)N[C@H](C(=O)N[C@@H](C)C(=O)N1CCC[C@H]1C(=O)N[C@@H](CCCNC(=N)N)C(=O)N[C@@H](CO)C(=O)N[C@@H](CCCCN)C(=O)N[C@H](C(=O)N[C@@H](CO)C(=O)N1CCC[C@H]1C(=O)N[C@@H](CCC(N)=O)C(=O)NCC(=O)N[C@@H](Cc1ccc(O)cc1)C(N)=O)[C@@H](C)CC)C(C)C)[C@@H](C)O [Example 9, ((2S,5S,11S,14S,21S)-21-(2-(2-aminoacetamido)acetamido)-5-benzyl-2-(3-guanidinopropyl)-11-((R)-1-hydroxyethyl)-3,6,9,12,16,22-hexaoxo-1,4,7,10,13,17-hexaazacyclodocosane-14-carbonyl)-L-threonyl-ADM(22-52)] (H-GG[Orn]RFGTDTVQKLAHQIYQFTDKDKDNVAPRSKISPQGY-NH2; lactam 3-8)
EC50 [1]: > 1000 nM
EC50 [2]: > 1000 nM

CCCCCCCCCCCCCCCC(=O)NCCCC[C@H](N)C(=O)NCC(=O)N[C@H]1CCCCNC(=O)CC[C@@H](C(=O)N[C@H](C(=O)N[C@H](C(=O)N[C@@H](CCC(N)=O)C(=O)N[C@@H](CCCCN)C(=O)N[C@@H](CC(C)C)C(=O)N[C@@H](C)C(=O)N[C@@H](Cc2c[nH]cn2)C(=O)N[C@@H](CCC(N)=O)C(=O)N[C@H](C(=O)N[C@@H](Cc2ccc(O)cc2)C(=O)N[C@@H](CCC(N)=O)C(=O)N[C@@H](Cc2ccccc2)C(=O)N[C@H](C(=O)N[C@@H](CC(=O)O)C(=O)N[C@@H](CCCCN)C(=O)N[C@@H](CC(=O)O)C(=O)N[C@@H](CCCCN)C(=O)N[C@@H](CC(=O)O)C(=O)N[C@@H](CC(N)=O)C(=O)N[C@H](C(=O)N[C@@H](C)C(=O)N2CCC[C@H]2C(=O)N[C@@H](CCCNC(=N)N)C(=O)N[C@@H](CO)C(=O)N[C@@H](CCCCN)C(=O)N[C@H](C(=O)N[C@@H](CO)C(=O)N2CCC[C@H]2C(=O)N[C@@H](CCC(N)=O)C(=O)NCC(=O)N[C@@H](Cc2ccc(O)cc2)C(N)=O)[C@@H](C)CC)C(C)C)[C@@H](C)O)[C@@H](C)CC)C(C)C)[C@@H](C)O)NC(=O)[C@H]([C@@H](C)O)NC(=O)CNC(=O)[C@H](Cc2ccccc2)NC(=O)[C@H](CCCNC(=N)N)NC1=O [Example 13, ((2S,5S,11S,14S,23S)-23-(2-((S)-2-amino-6-palmitamidohexanamido)acetamido)-5-benzyl-2-(3-guanidinopropyl)-11-((R)-1-hydroxyethyl)-3,6,9,12,17,24-hexaoxo-1,4,7,10,13,18-hexaazacyclotetracosane-14-carbonyl)-L-threonyl-ADM(22-52)] (H-K(Palmitoyl)GKRFGTETVQKLAHQIYQFTDKDKDNVAPRSKISPQGY-NH2; lactam 3-8)
EC50 [1]: > 1000 nM
EC50 [2]: 156 nM
